One data set deals with T1, elastase (Sus scrofa, UniProt P00772).
T1 construct: purchased Invitrogen
The experiment in a line: Elastase inhibitory activity (EnzChek Elastase Assay Kit, DQ elastin). Type of data set: biochemical. As to the method: Elastase inhibitory activity was performed by purchasing EnzChek® Elastase Assay Kit (600 Assays) reagent from Invitrogen. First, DQ elastin stock solution (1 mg/ml) was prepared by adding 1.0 ml of DDW to 1 mg DQ elastin vial. The 18 ml of DDW was added to 2 ml of 10× reaction buffer, so as to dilute reaction buffer. Then, an elastase enzyme reagent was prepared, and diluted with reaction buffer to a final concentration of 0.2 U/ml as working solution. Three samples of 50 ? each were prepared in a 96-well plate. The 50 ? of reaction buffer was added to 50 ? of DQ elastin and sample blank, and 50 ? of working solution was added to a sample, which were then left in a light-blocked state at room temperature for about one hour, and then fluorescence intensity was measured at excitation wavelength 505 nm and emission wavelength 515 nm using ELISA plate reader (VICTOR X3™, PerkinElmer, US).
Copper peptide (Comparative Example 12) and EGCg (Comparative Example 13), which is widely used as a raw material for functional cosmetics, were prepared at the same concentration and used as a positive control.
EGCg (epigallocatechin gallate) is a kind of polyphenol, which is an extract of green tea leaves, and is used as a cosmetic raw material for anti-oxidation, inflammation reduction, and wrinkle alleviation, and Copper peptide is used as a raw material for promoting wound healing, strengthening skin elasticity, and increasing subcutaneous fat layer to suppress skin aging due to excellent skin regeneration ability.

Data set [1] in a line: HaCaT cytotoxicity test (MTS cell viability). Type of data set: cell-based. The note with it: human, HaCaT cells (skin epidermal cells). As to the method: HaCaT cells, skin epidermal cells (derived from human), were used. The medium was DMEM low (SH30021.01, HyClone™, Logan, UT, USA) medium containing 10% fetal bovine serum (FBS, Lonza, Valais, Switzerland) medium. The cell lines were cultured in an incubator adjusted to 95% humidity, 5% CO2 and 37° C., and at this time, a medium antibiotic (Penicillin streptomycin, Gibco, Calif., USA) was used to suppress contamination or proliferation of microorganisms. When the cells covered the dish about 80%, the cells were washed with phosphated-buffered saline-EDTA (PBS-EDTA), and then the cells attached to the bottom of the dish were detached by treating with 1 ml of 0.05% trypsin EDTA, and subjected to subculture. The medium was exchanged every 48 hours to culture the cells.
Cell viability was measured using MTS (CellTiter 96® AQueous One Solution Cell Proliferation Assay, Promega, USA) reagent. The cells were divided at a concentration of 1×10^4 cells/well in a 96-well plate and then stabilized for 24 hours in an incubator controlled to 95% humidity, 5% CO2 and 37° C. After that, the samples were treated for each concentration (table 1) and cultured for 24 hours in an incubator controlled to 95% humidity, 5% CO2 and 37° C. After the medium was removed, 9 ml of medium (DMEM low, free FBS) was added to 1 ml of the reagent and diluted, and then 100 ul of the diluted solution was treated per well. After the reaction at 37° C. for 60 minutes, absorbance was measured at 490 nm with microplate reader (Molecular Devices, VersaMax ELISA Microplate Reader, USA). Cell viability was represented by absorbance of a sample-treated group compared to a control group not treated with the sample.

The nature of data set [2]: HS68 cytotoxicity test (MTS cell viability). Type of data set: cell-based. Conditions: human, HS68 cells (skin fibroblasts). As to the method: (§1) Skin fibroblast HS68 cells were used. The medium was DMEM high glucose (SH30243.01, HyClone™, Logan, UT, USA) medium containing 10% fetal bovine serum (FBS, Lonza, Valais, Switzerland) medium. The cell lines were cultured in an incubator adjusted to 95% humidity, 5% CO2 and 37° C., and at this time, a medium antibiotic (Penicillin streptomycin, Gibco, Calif., USA) was used to suppress contamination or proliferation of microorganisms.
(§2) Cell viability was measured using MTS (CellTiter 96® AQueous One Solution Cell Proliferation Assay, Promega, USA) reagent. The cells were divided at a concentration of 1×10^4 cells/well in a 96-well plate and then stabilized for 24 hours in an incubator controlled to 95% humidity, 5% CO2 and 37° C. After that, the samples were treated for each concentration and cultured for 24 hours in an incubator controlled to 95% j humidity, 5% CO2 and 37° C. After the medium was removed, 9 ml of medium (DMEM high, free FBS) was added to 1 ml of the reagent and diluted, and then 100 ul of the diluted solution was treated per well. After the reaction at 37° C. for 60 minutes, absorbance was measured at 490 nm with microplate reader (Molecular Devices, VersaMax ELISA Microplate Reader, USA). Cell viability was represented by absorbance of a sample-treated group compared to a control group not treated with the sample.

The subject of a further data set is HS68 cells. The experiment in a line: HS68 cytotoxicity test (MTS cell viability). In kind it is cell-based. Conditions: HS68, 50 μg/ml, 24 hours. The procedure: as §1, §2

The structures appear in SMILES notation.

T1 sequence (P00772 27-266): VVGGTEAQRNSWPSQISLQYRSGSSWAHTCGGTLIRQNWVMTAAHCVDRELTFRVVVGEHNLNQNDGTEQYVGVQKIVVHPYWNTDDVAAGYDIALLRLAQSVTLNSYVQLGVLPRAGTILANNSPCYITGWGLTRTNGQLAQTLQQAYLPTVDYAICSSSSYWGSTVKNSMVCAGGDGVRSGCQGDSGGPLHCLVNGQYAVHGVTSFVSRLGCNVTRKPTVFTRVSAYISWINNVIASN

Regarding `CN1CCC[C@H]1C(=O)NCC(=O)N[C@@H](CC(N)=O)C(=O)O` [Me-PGN], the inhibition at 20 µg/mL against elastase (0.02 mg/ml) turned out to be 5.2 ± 1.7%. In addition, the inhibition at 40 µg/mL on elastase (0.04 mg/ml) was 6.9 ± 1.8%. Further, the inhibition at 60 µg/mL against elastase (0.06 mg/ml) was 9.9 ± 1.5%. This molecule also gave an inhibition at 100 µg/mL at elastase (0.1 mg/ml) of 11.2 ± 1.1%. This molecule also gave an inhibition at 1000 µg/mL against elastase (1 mg/ml) of 11.2%. Also, the viability at 24 h, 1 µg/mL in data set [1] (1 μg/ml) came out at 125 ± 6.1%; in data set [2] (HS68, 1 μg/ml) it was 103 ± 3.9%. In addition, the viability at 24 h, 10 µg/mL in data set [1] (10 μg/ml) was found to be 127 ± 6.5%; in data set [2] (HS68, 10 μg/ml), 104 ± 4.5%. Besides, in data set [1] (50 μg/ml), the viability at 24 h, 50 µg/mL was determined as 122 ± 3.7%. The viability at 24 h, 100 µg/mL in data set [1] (100 μg/ml) was found to be 126 ± 14.8%; in data set [2] (HS68, 100 μg/ml), 104 ± 5.6%. Also, in the data set on HS68 cells, the Cell viability was found to be 103 ± 3.4%.

Values taken from patent US20230312643A1, “PEPTIDE DERIVATIVE WITH COLLAGENASE INHIBITORY ACTIVITY, AND USE THEREOF” (SUNMARINE BIOTECH, priority 2020, published 2023).
